Laboratory results reported in patent publication US20260078110A1, “SESTERTERPENOID COMPOUNDS AND EXTRACT L01 OF LEUCOSCEPTRUM CANUM, AND USE THEREOF IN TREATMENT OF PSORIASIS” (Kunming Institute of Botany, CAS, priority 2023, published 2026).
Blank lines part the entries; values can stand above or below the compound they belong to.

What was measured:
[1] = tested on: pro-inflammatory cytokine IFN-γ secretion by mouse T cells stimulated by CD3/CD28 monoclonal antibodies; assay: Inhibition of IFN-γ secretion by mouse T cells stimulated by CD3/CD28 monoclonal antibodies (ELISA); format: cell-based; conditions: T-cell, 48 h, C57BL/6 mouse T cells, CD3/CD28 mAb stimulation; for inhibition at 20 µM: read-out: Inhibitory rate (%, 20 μM)
Protocol: CD3, CD28 monoclonal antibodies, and kit for IFN-γ detection were purchased from BD Bioscience, Cell Counting Kit-8 (CCK-8) was purchased from MeilunBio®, and RPMI-1640 medium and fetal bovine serum were purchased from Biological Industries.
Preparation of samples to be tested: the 12 compounds of Example 1 were dissolved in DMSO, respectively to prepare 20 mM stock solutions.
Splenocytes were aseptically isolated from 6-8 week old female C57BL/6 mice, and T cells were isolated using a nylon wool column method. The T cells were then inoculated (4×10^5 cells/well) in a 96-well plate (which was coated with 5 μg/mL of CD3 monoclonal antibody). At the same time, a prepared compound solution of 40 μM, 20 μM, 10 μM, 5 μM, 2.5 μM, or 1.25 μM along with a 2 μg/mL solution of CD28 monoclonal antibody were added into each group, respectively, which were cultured in a 37° C./5% CO2 incubator. After 48 h, the supernatant of the cells was collected and the IFN-γ secretion in the supernatant was detected by an Enzyme-Linked Immuno-Sorbent Assay (ELISA); 10 μL of CCK-8 solution was added into each well, and OD450 was measured after incubation at 37° C. for 4 h to evaluate cell proliferation. […] The inhibitory activity of the compounds on IFN-γ was calculated, and the half-maximal inhibitory concentration (IC50) was analyzed using GraphPadPrism software.

[2] = tested on: imiquimod-induced psoriasis mice; assay: In vivo anti-psoriasis activity test on sesterterpenoid compound 6 (imiquimod-induced psoriasis mouse model); conditions: 25 and 50 mg/kg intraperitoneal injection, day 1 to 6
Protocol: Establishment and pharmacodynamic study of a mouse model of imiquimod-induced psoriasis: the mice were randomly divided into a control group, a model group, a methotrexate (MTX) treatment (1 mg/kg) group, and Leucosceptrum canum sesterterpenoid treatment (50 mg/kg, 150 mg/kg, 450 mg/kg) groups, with 6 mice in each group. The mice were depilated on their backs before the experiment, and 62.5 mg of […] imiquimod cream was evenly applied on the backs of mice while an equivalent amount of Vaseline was applied on the backs of mice in the normal control group from the 1st day, the application was performed once a day for 6 d. From the 1st day 1 to the 6th day, each treatment group was given the drug by gavage. During the experiment, the mice were weighed and scored for the Psoriasis Area and Severity Index (PASI) according to the following criteria: 0 points, normal skin without erythema and scales; 1 point, mild erythema, a few fine scales, and the skin at the lesion being slightly higher than normal skin; 2 points, moderate red plaques, the surface of the lesions being covered with scales, and the lesions being flaky or moderately raised; 3 points, severe dark red plaques, almost all the lesions being covered with thick scales or obvious lesions; 4 points, extremely severe and dark red plaques, all lesions being covered with highly thick layered scales, and the thickening and protrusion of the lesions being extremely obvious. After the experiment, the back skin of the mice was taken to make pathological sections. The levels of pro-inflammatory cytokines IFN-γ and IL-17A in mouse serum were detected by ELISA.
A method for establishing the imiquimod-induced psoriasis mouse model was the same as that in Example 4. The mice were randomly divided into a control group, a model group, a methotrexate (MTX) treatment group (1 mg/kg), and compound 6 treatment groups (25 and 50 mg/kg), with 6 mice in each group. From the 1st day to the 6th day, drugs were given to each treatment group by intraperitoneal injection. During the experiment, the mice were weighed and scored for PASI. After the experiment, the back skin of the mice was taken to make pathological sections. The levels of pro-inflammatory cytokines IFN-γ and IL-17A in mouse serum were detected by ELISA.

Compound: CC(C)=C[C@]1(O)C(=O)[C@@H](C)[C@@H]2CC[C@H](C)[C@H]2[C@]1(O)C(=O)[C@H](C)CC[C@@H]1OC(=O)C=C1C [Compound 1]
- inhibition at 20 µM [1]: 32.1 ± 5.46%

Compound: CC(C)=C[C@]1(O)C(=O)[C@@H](C)[C@@H]2CC[C@H](C)[C@H]2[C@@]1(O)C(=O)[C@H](C)CC[C@@H]1OC(=O)C=C1C [Compound 2]
- inhibition at 20 µM [1]: 51.3 ± 7.1%

Compound: CC(C)=C[C@]1(O)C(=O)[C@@H](C)[C@@H]2CC[C@H](C)[C@H]2[C@@]1(O)C(=O)[C@H](C)CCc1occc1C [Compound 3]
- inhibition at 20 µM [1]: 30.5 ± 6.55%

Compound: CC[C@@H](C)C(=O)[C@@]1(O)[C@H]2[C@@H](CC[C@@H]2C)[C@H](C)[C@]2(O)OCC(C)=C[C@@]21O [Compound 4]
- inhibition at 20 µM [1]: 26.7 ± 5.85%

Compound: CC1=C[C@@]2(O)[C@@](O)(OC1)[C@@H](C)[C@@H]1CC[C@H](C)[C@H]1[C@]2(O)C(=O)[C@H](C)CCO [Compound 5]
- inhibition at 20 µM [1]: 10.7 ± 2.74%

- IC50 [1]: 5.74 µM
Compound: CC1=C[C@@]2(O)[C@@](O)(OC1)[C@@H](C)[C@@H]1CC[C@H](C)[C@H]1[C@]2(O)C(=O)[C@H](C)CCc1occc1C [Compound 6]
- level of IFN-γ in the serum of psoriasis mice (FIG. 10A-10B, ELISA) [2]: significantly reduces
- level of IL-17A in the serum of psoriasis mice (FIG. 10A-10B, ELISA) [2]: significantly reduces
- pathological damage of the skin tissue of psoriasis mice (FIG. 9, HE staining) [2]: significantly inhibits
- symptoms of psoriasis in mice (FIG. 8) [2]: significantly improves
- inhibition at 20 µM [1]: 66.8 ± 3.02%

Compound: CC1=C[C@@]2(O)[C@@](O)(OC1)[C@@H](C)[C@@H]1CC[C@H](C)[C@H]1[C@]2(O)C(=O)[C@H](C)CC(=O)c1occc1C [Compound 7]
- inhibition at 20 µM [1]: 36.2 ± 8.27%

Compound: CC1=C[C@@]2(O)[C@@](O)(OC1)[C@@H](C)[C@@H]1CC[C@H](C)[C@H]1[C@]2(O)C(=O)[C@H](C)CCC1=C(C)CC(=O)O1 [Compound 8]
- inhibition at 20 µM [1]: 43.1 ± 7.35%

Compound: COC1(CC[C@@H](C)C(=O)[C@@]2(O)[C@H]3[C@@H](CC[C@@H]3C)[C@H](C)[C@]3(O)OCC(C)=C[C@@]32O)OC(=O)C=C1C (some centres unmarked) [Compound 9]
- inhibition at 20 µM [1]: 39.6 ± 7.93%

Compound: COC1C=C(C)C(CC[C@@H](C)C(=O)[C@@]2(O)[C@H]3[C@@H](CC[C@@H]3C)[C@H](C)[C@]3(O)OCC(C)=C[C@@]32O)(OC)O1 (some centres unmarked) [Compound 10]
- inhibition at 20 µM [1]: 10.4 ± 3.02%

Compound: CC1=C[C@@]2(O)[C@@](O)(OC1)[C@@H](C)[C@@H]1CC[C@H](C)[C@H]1[C@@]2(O)C(=O)[C@H](C)C[C@H]1C(=O)C(C)=C[C@@H]1O [Compound 11]
- inhibition at 20 µM [1]: 23.4 ± 1.24%

Compound: CC1=C[C@@]2(O)[C@@](O)(OC1)[C@@H](C)[C@@H]1CC[C@H](C)[C@H]1[C@@]2(O)C(=O)[C@@H](C)C[C@H]1C(=O)C(C)=C[C@@H]1O [Compound 12]
- inhibition at 20 µM [1]: 33.8 ± 2.27%
